For one data set, the system named is Abcd1 null mice. Put plainly: Immunoblot (Western blot) of ER stress and UPR markers in spinal cords of X-ALD mice. The data set is classed as in vivo. The following applies: diet with 0.4 % (wt/wt) TUDCA for 3 months. From the text: The generation and genotyping of Abcd1 null mice have been previously described (Pujol A. et al., Hum Mol Genet 2002; 11:499-505, Lu JF. et al., Proc.Natl.Acad.Sci.U.S.A 1997; 94:9366-9371.). Mice used for experiments were of a pure C57BL/6J background. Abcd1 null and WT mice were separated into control and treated groups. Treated groups were fed with a mixture of antioxidants that included 1000 iu/kg Vitamin E and 0.5% α-lipoic acid in the diet and 1% N-acetyl-cysteine (NAC) in water. Daily feedings were initiated at 8 months of age and were continued for 4 months until sacrifice.
(§1) The bile acid tauroursodeoxycholic acid TUDCA (Prodotti Chimici e Alimentari S.p.A., Italy) was mixed into AIN-76A chow (Dyets) at 0.4% w/w. Male mice were randomly assigned to one of the following groups: wild-type mice (n=10) that received normal AIN-76A chow, Abcd1^-/- mice (n=10) that received normal AIN-76A chow and Abcd1^-l- mice (n=10) that received AIN-76A chow containing TUDCA. The animals were treated for 3 months starting at 9 months of age to assess its effect on the progression of the biochemical signs of X-linked adrenoleukodystrophy. […]
Tissues were lysed in ice-cold RIPA buffer (50 mM Tris-HCl, pH 8, 12 mM deoxycholic acid, 150 mM NaCl and 1% NP40, supplemented with Complete Protease Inhibitor Cocktail, Roche) using a Teflon-on-glass homogenizer and then centrifuged at 1500 x g for 10 min at 4°C. The protein concentration was determined using a BCA protein assay kit (Thermo Fisher Scientific, Inc.). […]
To determine whether ER stress is regulated by redox imbalance in vivo, the inventors treated with antioxidants during 4 months the presymptomatic Abcd1 null mice at 8 months of age. Next, they assessed by Western Blots the presence of ER stress and UPR responses.
The mouse model of the disease, the Abcd1 null mouse, develops a late onset axonopathy that resembles the most frequent X-linked adrenoleukodystrophy phenotype, AMN. […] Then, the inventors determined the protein levels of ER stress marker dysregulated in the Abcd1 null mice. […]
In general terms: Immunoblotting shows a protein as a band on a membrane.

Data set [1] concerns Abcd1^-/Abcd2^-/- mice. Put plainly: Immunohistochemistry of axonal degeneration, microgliosis and astrocytosis in spinal cord. The data set is classed as in vivo. The following applies: 17-month-old double knockout mice, 0.4% w/w TUDCA in chow for 4 months from 13 months of age. How it is done: (§2) The bile acid tauroursodeoxycholic acid TUDCA (Prodotti Chimici e Alimentari S.p.A., Italy) was mixed into AIN-76A chow (Dyets) at 0.4% w/w. Male mice were randomly assigned to one of the following groups: wild-type mice (n=10) that received normal AIN-76A chow, Abcd1^-/- mice (n=10) that received normal AIN-76A chow and Abcd1^-l- mice (n=10) that received AIN-76A chow containing TUDCA. The animals were treated for 3 months starting at 9 months of age to assess its effect on the progression of the biochemical signs of X-linked adrenoleukodystrophy. The double knockout mice and their control littermates were randomly assigned to one of the following groups: wild-type mice (n=10) that received normal AIN-76A chow; double knockout mice (n =10) that received normal AIN-76A chow; and double knockout mice (n =10) that received AIN-76A chow containing TUDCA. The animals were treated for 4 months starting at 13 months of age to coincide with the onset of clinical signs. TUDCA had no effect on weight or food intake under either treatment protocol.
[…] Immunohistochemistry was carried out with the avidin-biotin peroxidase method and at least five sections of the spinal cord were analysed per animal and per stain. […] The results were expressed as the mean ± standard deviation. […]

Data set [2] relates to Abcd1^-/Abcd2^-/- mice. Description: Hindlimb clasping test. The data set is classed as in vivo. As to conditions: double knockout mice with TUDCA; untreated score 1, wild type 2; Figure 3A. As for the experimental part: as §1
(§3) For behavioral testing, assessment of hindlimb clasping was done by suspending mice from their tails until it reached a vertical position, but allowing the mice to grab the grill of the lid of the cage with the forelimbs, adapted from Dumser et al. cited supra. Hindlimb reflex was analysed for 10s in three consecutive trials separated by 5 min rest. […]
(§4) Locomotor deficits in Abcd1 /Abcd2^-/- mice were evaluated using clasping, treadmill and bar cross experiments after TUDCA treatment as described (Dumser M- et al., 2007 cited supra, Launay N. et al., 2015 cited supra). […]

Data set [3] concerns Abcd1^-/Abcd2^-/- mice. Description: Treadmill test. The data set is classed as in vivo. As to conditions: double knockout mice, after 3 months of treatment with TUDCA; Figure 3B. As for the experimental part:
as §1, §3, §4

Data set [4] deals with Abcd1^-/Abcd2^-/- mice. Description: Bar cross test. The data set is classed as in vivo. The following applies: double knockout mice with TUDCA; Figure 3C. How it is done:
as §1, §3, §4

Data set [5] can be described thus: Weight and food intake during treatment in chow. The data set is classed as in vivo, mice. As to conditions: 0.4% w/w in AIN-76A chow, either treatment protocol (3 months from 9 months; 4 months from 13 months). As for the experimental part: as §2

With `C[C@H](CCC(=O)NCCS(=O)(=O)O)[C@H]1CC[C@H]2[C@@H]3[C@@H](O)C[C@@H]4C[C@H](O)CC[C@]4(C)[C@H]3CC[C@]12C` [TUDCA, 3α,7β-Dihydroxy-5β-cholanoyltaurine], the “ATF6, P-PERK, P-eif2α/eif2α, ATF4 and CHOP levels” value in the data set with Abcd1 null mice (Figure 1C) is “normalized”. Besides, in the data set on Abcd1 null mice (Figure 1D), the PDI upregulation result is “prevented”; the “levels of the ER chaperones GRP78 and GRP94” value is “normalized”. Also, the axonal damage markers result with Abcd1^-/Abcd2^-/- mice [1] (APP and synaptophysin accumulation, Figures 2A, 2B) is “strikingly reduced to control levels”. For the same compound, the “numbers of reactive astrocytes and reactive microglia” value in the data set with Abcd1^-/Abcd2^-/- mice [1] (GFAP and Iba-1 staining, Figure 2A) is on record as “strikingly reduced to control levels”. Further, the median clasping score with Abcd1^-/Abcd2^-/- mice [2] is listed as 1.75. Moreover, the “shock times and number of shocks” value in the data set with Abcd1^-/Abcd2^-/- mice [3] is “indistinguishable from wild types”. Besides, in the data set on Abcd1^-/Abcd2^-/- mice [4], the number of slips entry was “normalized” and the “time necessary to cross the bar” value is reported as “normalized”. Moreover, in data set [5], the food intake result is “no effect” and the weight result is “no effect”.

The values above are taken from patent publication EP3335730A1, “COMPOUNDS FOR TREATING X-LINKED ADRENOLEUKODYSTROPHY” (Fundació Institut de Recerca Biomédica de Bellvitge …, priority 2016, dated 2018).
